The results in this text go back to article PMC12235220, “Cell‐Penetrating Peptide‐Based Triple Nanocomplex Enables Efficient Nuclear Gene Delivery in Chlamydomonas reinhardtii” (Biotechnology and Bioengineering, 2025).

Structures are written as SMILES.

The assay concerns C. reinhardtii cells. The assay can be described thus: Cellular uptake mechanism of triple nanocomplexes with the endocytosis inhibitor wortmannin. The following applies: wortmannin 33 µM pretreatment 1 h, then pVEC-R6A/Cy3-labeled DNA/SV40 nanocomplex 1 h at 25°C; control TAP with 5% DMSO; microplate reader. The format is cell-based, Chlamydomonas reinhardtii. The method, then:
To evaluate the cellular uptake mechanism of the triple nanocomplexes in microalgae, a fluorescence‐based assay was performed with wortmannin (Sigma‐Aldrich, USA) to determine the potential involvement of endocytosis in the process. A volume of 100 µL of C. reinhardtii cells (1.5 × 10^7 cells mL^−1) per well was seeded in a 96‐well plate with wortmannin at a final concentration of 33 µM. Cells treated with TAP medium containing 5% dimethyl sulfoxide were used as controls. […] Finally, the Cy3 fluorescence intensity of the samples was measured at 532 nm using a TECAN microplate reader (Bionics, Korea).

With `COC[C@H]1OC(=O)c2coc3c2[C@@]1(C)C1=C(C3=O)[C@@H]2CCC(=O)[C@@]2(C)C[C@H]1OC(C)=O` [wortmannin], the “Reduction of normalized Cy3/chlorophyll a level compared to control” value is 50%.
